Assay results: ChEMBL document CHEMBL1201862, “PubChem BioAssay data set” (2004)
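The compound was tested at five concentrations on cells cultured in 96-well plates, with a 48-hour exposure period. GI50 marks 50% less growth.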 Activity calls are given as the source filed them. No stated cut-off is given here; in the data, active = GI50 up to about 1.1 µM and inactive = higher.

Legend:
Test in all cases: NCI-60 cell line screen, 48 h
[1] = test system: T47D
[2] = test system: TK-10
[3] = test system: U-251
[4] = test system: UACC-257
[5] = test system: SK-MEL-5
[6] = test system: K562
[7] = test system: DU-145
[8] = test system: PC-3
[9] = test system: OVCAR-3
[10] = test system: MOLT-4
[11] = test system: MDA-MB-231
[12] = test system: 786-0
[13] = test system: COLO 205
[14] = test system: HOP-62
[15] = test system: MCF7
[16] = test system: MDA-MB-435
[17] = test system: HL-60
[18] = test system: Malme-3M
[19] = test system: SW-620
[20] = test system: HT-29

## O=C(OCC(Cl)(Cl)Cl)N1CC[C@H](C2CCCCC2)C1
[1]
  GI50: 15.3 µM (inactive)
[2]
  GI50: 18.8 µM (inactive)
[3]
  GI50: 1.09 µM (active)
[4]
  GI50: 19.1 µM (inactive)
[5]
  GI50: 14.9 µM (inactive)
[6]
  GI50: 21.1 µM (inactive)
[7]
  GI50: 15.8 µM (inactive)
[8]
  GI50: 21.6 µM (inactive)
[9]
  GI50: 16.6 µM (inactive)
[10]
  GI50: 28.1 µM (inactive)
[11]
  GI50: 35.5 µM (inactive)
[12]
  GI50: 16.7 µM (inactive)
[13]
  GI50: 18.8 µM (inactive)
[14]
  GI50: 18.3 µM (inactive)
[15]
  GI50: 18.6 µM (inactive)

## NC(=S)N1N=C(c2ccccc2O)CC1c1ccccc1 (stereo not given)
[16]
  GI50: 3.02 µM (inactive)
[17]
  GI50: 3.69 µM (inactive)
[1]
  GI50: 17.6 µM (inactive)
[2]
  GI50: 20.1 µM (inactive)
[18]
  GI50: 16.1 µM (inactive)
[3]
  GI50: 16.8 µM (inactive)
[4]
  GI50: 15.3 µM (inactive)
[5]
  GI50: 10.2 µM (inactive)
[6]
  GI50: 3.85 µM (inactive)
[7]
  GI50: 27 µM (inactive)
[8]
  GI50: 5.24 µM (inactive)
[9]
  GI50: 10.5 µM (inactive)
[19]
  GI50: 9.59 µM (inactive)
[10]
  GI50: 8.04 µM (inactive)
[12]
  GI50: 21.1 µM (inactive)
[13]
  GI50: 8.97 µM (inactive)
[20]
  GI50: 11 µM (inactive)
[14]
  GI50: 4.95 µM (inactive)
[15]
  GI50: 4.45 µM (inactive)

## Cc1ccc2c(c1)[nH]c(=S)n2C=C(C(N)=O)C(N)=O
[16]
  GI50: > 100 µM (inactive)
[17]
  GI50: 5.66 µM (inactive)
[1]
  GI50: > 100 µM (inactive)
[2]
  GI50: > 100 µM (inactive)
[3]
  GI50: > 100 µM (inactive)
[4]
  GI50: > 100 µM (inactive)
[5]
  GI50: > 100 µM (inactive)
[7]
  GI50: > 100 µM (inactive)
[9]
  GI50: > 100 µM (inactive)
[19]
  GI50: > 100 µM (inactive)
[11]
  GI50: > 100 µM (inactive)
[12]
  GI50: > 100 µM (inactive)
[13]
  GI50: > 100 µM (inactive)
[20]
  GI50: > 100 µM (inactive)
[14]
  GI50: > 100 µM (inactive)

## CCC1(O)C(=O)OCc2c1cc1n(c2=O)Cc2cc3c(N)cccc3nc2-1 (stereo not given) [RS-9-Aminocamptothecin]
[16]
  GI50: 0.0607 µM (active)
[17]
  GI50: < 0.0128 µM (active)
[2]
  GI50: 3.02 µM (inactive)
[18]
  GI50: 0.21 µM (active)
[3]
  GI50: < 0.0115 µM (active)
[4]
  GI50: 0.121 µM (active)
[5]
  GI50: 0.0255 µM (active)
[6]
  GI50: 0.0309 µM (active)
[7]
  GI50: < 0.011 µM (active)
[8]
  GI50: 0.115 µM (active)
[9]
  GI50: 0.277 µM (active)
[19]
  GI50: 0.0281 µM (active)
[10]
  GI50: < 0.01 µM (active)
[11]
  GI50: 2.1 µM (inactive)
[12]
  GI50: 0.0108 µM (active)
[13]
  GI50: 0.741 µM (active)
[20]
  GI50: 0.118 µM (active)
[14]
  GI50: < 0.0119 µM (active)
[15]
  GI50: < 0.01 µM (active)

## CCCCC[C@@H]1OC(=O)[C@@]2(CC3c4ccccc4C2c2ccccc23)[C@H]1C(=O)OC
[16]
  GI50: 93.1 µM (inactive)
[17]
  GI50: 6.35 µM (inactive)
[2]
  GI50: 35.9 µM (inactive)
[18]
  GI50: 53.2 µM (inactive)
[3]
  GI50: 45 µM (inactive)
[4]
  GI50: 14.5 µM (inactive)
[5]
  GI50: 17.2 µM (inactive)
[6]
  GI50: 15.8 µM (inactive)
[7]
  GI50: > 100 µM (inactive)
[8]
  GI50: 14.6 µM (inactive)
[9]
  GI50: 92.5 µM (inactive)
[19]
  GI50: 52 µM (inactive)
[10]
  GI50: > 10 µM (inactive)
[11]
  GI50: > 100 µM (inactive)
[12]
  GI50: 67.3 µM (inactive)
[13]
  GI50: 14.2 µM (inactive)
[20]
  GI50: 17.3 µM (inactive)
[14]
  GI50: > 100 µM (inactive)
[15]
  GI50: 21.8 µM (inactive)

## [C-]#[N+]C1(C(=O)OCC)CC1
[16]
  GI50: > 100 µM (inactive)
[17]
  GI50: > 100 µM (inactive)
[1]
  GI50: > 100 µM (inactive)
[2]
  GI50: > 100 µM (inactive)
[18]
  GI50: > 100 µM (inactive)
[3]
  GI50: > 100 µM (inactive)
[4]
  GI50: > 100 µM (inactive)
[5]
  GI50: > 100 µM (inactive)
[6]
  GI50: > 100 µM (inactive)
[7]
  GI50: > 100 µM (inactive)
[8]
  GI50: > 100 µM (inactive)
[9]
  GI50: > 100 µM (inactive)
[19]
  GI50: > 100 µM (inactive)
[10]
  GI50: > 100 µM (inactive)
[12]
  GI50: > 100 µM (inactive)
[20]
  GI50: > 100 µM (inactive)
[14]
  GI50: > 100 µM (inactive)
[15]
  GI50: > 100 µM (inactive)
